For 18 molecules, IC50 results are on record in BindingDB's records for doi:10.1016/j.ejmech.2009.09.025 (2010).

pIC50: −log10 of the molar value.

Experiment [1] addresses Glutamate receptor ionotropic, kainate 2 (GluK2/GRIK2) (Homo sapiens) (UniProt Q13002). The experiment in a line: Antagonist activity at human recombinant GluR6 expressed in HEK cells coexpressing aequorine assessed as inhibition of glutamate-induced Ca2+ influx at 10 uM by luminescence reporter assay.
Experiment [2] addresses Glutamate receptor ionotropic, kainate 1 (GluK1/GRIK1) (Homo sapiens) (UniProt P39086). In words: Antagonist activity at human recombinant GluR5 expressed in HEK cells coexpressing aequorine assessed as inhibition of glutamate-induced Ca2+ influx by luminescence reporter assay.

Glutamate receptor ionotropic, kainate 2 (GluK2/GRIK2) (Homo sapiens), sequence (Q13002 whole entry, looked up): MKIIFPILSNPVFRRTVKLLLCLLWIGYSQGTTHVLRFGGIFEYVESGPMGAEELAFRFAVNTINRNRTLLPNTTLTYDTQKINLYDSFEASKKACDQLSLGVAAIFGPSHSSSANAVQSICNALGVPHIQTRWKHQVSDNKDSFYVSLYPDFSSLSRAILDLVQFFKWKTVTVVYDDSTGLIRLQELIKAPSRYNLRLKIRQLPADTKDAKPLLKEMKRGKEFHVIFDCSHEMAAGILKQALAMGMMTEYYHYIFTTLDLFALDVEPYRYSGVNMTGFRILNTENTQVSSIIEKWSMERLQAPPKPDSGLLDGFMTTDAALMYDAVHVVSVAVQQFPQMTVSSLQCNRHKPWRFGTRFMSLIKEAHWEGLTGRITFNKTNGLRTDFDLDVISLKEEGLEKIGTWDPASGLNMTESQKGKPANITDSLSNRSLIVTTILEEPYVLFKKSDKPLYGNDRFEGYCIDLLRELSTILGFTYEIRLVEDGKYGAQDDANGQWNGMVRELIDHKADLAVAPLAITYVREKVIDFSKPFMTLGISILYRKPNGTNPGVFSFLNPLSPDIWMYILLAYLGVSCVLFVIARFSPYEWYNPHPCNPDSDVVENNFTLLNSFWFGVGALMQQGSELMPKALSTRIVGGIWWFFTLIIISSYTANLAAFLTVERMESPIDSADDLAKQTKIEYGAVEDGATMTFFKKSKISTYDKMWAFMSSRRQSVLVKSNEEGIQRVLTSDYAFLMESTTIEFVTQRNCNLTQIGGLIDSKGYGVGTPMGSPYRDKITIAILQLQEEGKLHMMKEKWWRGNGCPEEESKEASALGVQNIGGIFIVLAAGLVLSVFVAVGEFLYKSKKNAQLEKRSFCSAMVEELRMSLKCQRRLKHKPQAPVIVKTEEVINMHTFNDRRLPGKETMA
Glutamate receptor ionotropic, kainate 1 (GluK1/GRIK1) (Homo sapiens), sequence (P39086 whole entry, looked up): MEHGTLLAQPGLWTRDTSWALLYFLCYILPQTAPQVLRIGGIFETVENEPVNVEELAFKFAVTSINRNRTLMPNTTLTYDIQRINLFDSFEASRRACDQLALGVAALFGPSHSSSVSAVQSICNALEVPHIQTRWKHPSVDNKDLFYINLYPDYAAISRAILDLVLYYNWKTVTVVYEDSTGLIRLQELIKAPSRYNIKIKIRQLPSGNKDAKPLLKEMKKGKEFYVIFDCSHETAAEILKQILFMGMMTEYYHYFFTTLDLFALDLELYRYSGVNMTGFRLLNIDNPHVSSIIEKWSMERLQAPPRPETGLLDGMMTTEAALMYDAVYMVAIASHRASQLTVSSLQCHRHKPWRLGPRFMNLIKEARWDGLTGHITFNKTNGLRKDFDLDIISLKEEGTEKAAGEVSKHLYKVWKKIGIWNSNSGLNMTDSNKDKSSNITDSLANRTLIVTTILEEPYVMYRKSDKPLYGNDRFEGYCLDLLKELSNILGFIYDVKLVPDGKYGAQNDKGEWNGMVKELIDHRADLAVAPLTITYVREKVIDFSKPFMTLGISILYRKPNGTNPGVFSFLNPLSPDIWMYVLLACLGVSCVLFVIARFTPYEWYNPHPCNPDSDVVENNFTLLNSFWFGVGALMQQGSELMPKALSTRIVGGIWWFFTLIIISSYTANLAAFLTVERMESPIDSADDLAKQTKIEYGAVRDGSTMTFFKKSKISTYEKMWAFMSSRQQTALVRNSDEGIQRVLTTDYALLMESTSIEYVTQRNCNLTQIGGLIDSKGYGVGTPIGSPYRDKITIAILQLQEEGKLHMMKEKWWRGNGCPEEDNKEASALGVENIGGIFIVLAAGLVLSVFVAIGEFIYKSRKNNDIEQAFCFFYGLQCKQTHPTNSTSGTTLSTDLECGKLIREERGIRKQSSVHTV

`Cc1c(-c2ccccc2)sc(N)c1C#N` [2-Amino-4-methyl-5-phenylthiophene-3-carbonitrile]: the pIC50 in experiment [1] is 4.15.
With `CCOC(=O)c1c(N)sc(-c2ccccc2)c1C` [Ethyl 2-amino-4-methyl-5-phenylthiophene-3-carboxylate], the pIC50 in experiment [1] is 6.12.
The same measure, in the same setting: the value for `CCOC(=O)c1c(N=C=S)sc(-c2ccccc2)c1C` [2-isothiocyanato-4-methyl-5-phenylthiophene-3-carboxylate] was 5.46.
The same measure, in the same setting: the value for `CCOC(=O)c1c(N)sc(-c2ccc(OC)cc2)c1C` [Ethyl 2-amino-5-(4-methoxyphenyl)-4-methylthiophene-3-carboxylate] was 5.07; that for `C[C@H](C[C@H](N)C(=O)O)C(=O)O` [2-Amino-4-methyl-pentanedioic acid] was 5.40; that for `CCCOC(=O)c1c(N)sc(-c2ccccc2)c1C` [Propyl 2-amino-4-methyl-5-phenylthiophene-3-carboxylate] was 5.62.
For `COC(=O)c1c(N)sc(-c2ccccc2)c1C` [Methyl 2-amino-4-methyl-5-phenylthiophene-3-carboxylate], the pIC50 was 4.52 in experiment [2] and 5.39 in experiment [1].
For `CCOC(=O)c1c(N)sc(-c2ccccc2Cl)c1C` [Ethyl 2-amino-5-(2-chlorophenyl)-4-methylthiophene-3-carboxylate], the pIC50 in experiment [1] was 5.24.
Same read-out and setting: the value for `CCOC(=O)c1c(N=NN2CCOCC2)sc(-c2ccccc2)c1C` [Ethyl 4-methyl-2-(morpholinodiazenyl)-5-phenylthiophene-3-carboxylate] was 4.27; that for `CCOC(=O)c1c(Cl)sc(-c2ccccc2)c1C` [Ethyl 2-chloro-4-methyl-5-phenylthiophene-3-carboxylate] was 5.00.
On the same count and under the same terms, the value for `CCOC(=O)c1c(N=NC#N)sc(-c2ccccc2)c1C` [Ethyl 2-(cyanodiazenyl)-4-methyl-5-phenylthiophene-3-carboxylate] was 4.68.
The same measure, in the same setting: the value for `N#Cc1cc2c(cc1[N+](=O)[O-])=NC(=O)C(=O)N=2` [7-nitro-2,3-dioxo-2,3-dihydroquinoxaline-6-carbonitrile] was 4.64.
With `Clc1ccc(CO[C@@H](Cn2ccnc2)c2ccc(Cl)cc2Cl)c(Cl)c1` [Brentan], in experiment [1], the pIC50 is 5.19.
Consider `CCOC(=O)c1c(N)sc(-c2ccccc2)c1-c1ccccc1` [Ethyl 2-amino-4,5-diphenylthiophene-3-carboxylate], for which, in experiment [1], the pIC50 was 5.35.
The same measure, in the same setting: the value for `CCOC(=O)c1c(N=NN(C)C)sc(-c2ccccc2)c1C` [Ethyl 2-(3,3-dimethyltriaz-1-enyl)-4-methyl-5-phenylthiophene-3-carboxylate] was 4.42; that for `CCOC(=O)c1c(N)sc(-c2ccc(F)cc2)c1C` [Ethyl 2-amino-5-(4-fluorophenyl)-4-methylthiophene-3-carboxylate] was 4.92.
Same read-out and setting: the value for `Cc1c(-c2ccccc2)sc(N)c1C(=O)c1ccccc1` [(2-Amino-4-methyl-5-phenylthiophen-3-yl)(phenyl)methanone] was 4.97; that for `Cc1c(-c2ccccc2)sc(N)c1C(=O)OC(C)(C)C` [Tert-Butyl 2-amino-4-methyl-5-phenylthiophene-3-carboxylate] was 5.44.
